What was measured:
HIF‐1 = assay: HIF-1 luciferase reporter gene assay (U251-HRE / U251-PGL3); type: cell-based; details: hypoxic environments, compared to the control group
Procedure: HIF‐1 activity was assessed in U251‐HRE and U251‐PGL3 using a 96‐well format. Cells were rinsed twice with ice‐cold PBS, lysed with 200 µl of passive lysis buffer (Promega, Wisconsin, USA), and incubated at room temperature for 10 min. Lysates were centrifuged and stored at −80°C until assayed. Luciferase assays were conducted by pipetting 20 µl of cell lysate into each well of a 96‐well plate and analyzed immediately after adding the luciferase reagent (Promega) in a multi‐mode microplate reader (Centro LB960, Berthold, Germany).

[1] = test system: A549/2‐ME2 and H460/2‐ME2 cells; assay: Epigenetics Compound Library screen in HIF-1 inhibitor-resistant cells; type: cell-based, Human
multiple myeloma = test system: multiple myeloma; set-up: method as in PMID 20499131, PMID 17947482, PMID 16832603, PMID 16197617; details: sixty patients with multiple myeloma, phase II study; ref [15], [16], [17], [18]; cited from earlier work
H460/DR cells = assay: Annexin V-FITC/PI apoptosis assay; type: cell-based, Human; details: 48 h exposure
Procedure: (§1) After incubation for 48 h, cells were harvested by centrifugation and washed twice in PBS. Then stained the cells according to the FITC Annexin V Apoptosis Detection Kit II (BD Biosciences, USA). Control cells stained with Annexin‐V or PI alone were used to compensate for flow cytometric analysis. Viable cells were those with both Annexin‐V and PI‐double negative staining. Annexin‐V‐positive and PI‐negative cells were defined as early apoptotic cells, and Annexin‐V and PI‐double‐positive cells were defined as late apoptotic cells.

A549/DR cells = assay: Annexin V-FITC/PI apoptosis assay; type: cell-based, Human; details: 48 h exposure
Procedure: as §1

[2] = test system: A549/DR and H460/DR cells; assay: CCK-8 cytotoxicity, resistance ratio in dual drug-resistant cells; type: cell-based, Human; details: A549/DR and H460/DR vs parental
Procedure: Cells (4 × 10^3per well) were seeded into a 96‐well plate and cultured at 37°C in a 5% CO2 incubator. After 24 h, different concentrations of 2‐ME2 were put into wells which ranged from 0.01 to 100 µM with a minimum of three technical replicates. After 72 h, 10 µl CCK‐8 (MCE, NY, USA) was added to each well and incubated for an additional 4 h at 37°C in a 5% CO2 incubator. Then, […]. The optical density values were measured at 450 nm using a microplate reader (Molecular Devices, San Jose, CA, USA).

HIF‐1α = assay: Western blot of HIF-1α after EZH2 inhibitors; type: cell-based; details: compared to the control group

luciferase activity in U251 (HIF‐1) | Structure (SMILES) | sensitivity of resistant cells compared to the parental cells [1] | objective response in patients (multiple myeloma) | apoptotic cell population (H460/DR cells) | apoptotic cell population (A549/DR cells) | resistance ratio (RI) of the IC50 in drug‐resistant cells compared to the IC50 in parental cells [2] | HIF‐1α protein levels (HIF‐1α)
promoted luciferase activity | CCN(c1cc(-c2ccc(CN3CCOCC3)cc2)cc(C(=O)NCc2c(C)cc(C)[nH]c2=O)c1C)C1CCOCC1 [EPZ6438] | more sensitive |  |  |  |  | 
 | COc1cc2c(cc1O)CC[C@@H]1[C@@H]2CC[C@]2(C)[C@@H](O)CC[C@@H]12 [2‐ME2, 2‐methoxy estradiol] |  | no objective response | much lower | much lower | ≈ 4 | 
 | CCN(c1cc(C#CCN2CCOCC2)cc(C(=O)NCc2c(C)cc(C)[nH]c2=O)c1C)[C@H]1CC[C@H](N(C)CCOC)CC1 [EPZ011989] | more sensitive |  |  |  |  | 
promoted luciferase activity | CC[C@H](C)n1cc(C)c2c(C(=O)NCc3c(C)cc(C)[nH]c3=O)cc(-c3ccc(N4CCNCC4)nc3)cc21 [GSK126] | more sensitive |  | much lower | much lower | ≈ 4 | significantly higher levels of HIF‐1α protein

— PMC10870044, “The Interplay Between HIF‐1α and EZH2 in Lung Cancer and Dual‐Targeted Drug Therapy” (Advanced Science, 2023)
